Where two headings read alike, the source gives them in different places.
How the values were obtained:
[1] = test system: LAPC4 cells; assay: Androgen-dependent cell-based assay (DHT, LAPC4); conditions: Homo sapiens
Protocol: Androgen-Dependent Cell-based Assay. As described by Jones and Diamond (2008), LAPC4 cells were cultured in phenol red free RPMI 1640 media supplemented with antibiotics and 10% FBS. […] […] Mean-effect plots (log[compound] vs. log[fractional effect]) were generated to determine the IC50 values for each test compound or combinations of test compounds at constant ratios.

[2] = test system: S. mansoni; assay: Antischistosomal screen in S. mansoni-infected mice; format: in vivo, Schistosoma mansoni; conditions: for ED50: Schistosoma mansoni; for Worm burden reduction (WBR): single oral dose Ro 13-3978 100 mg/kg, praziquantel 400 mg/kg
Text: Antischistosomal Screen. […] As described by Lombardo et al. (2019), cercariae of S. mansoni were obtained from infected Biomphalaria glabrata. By way of example, NMRI mice were infected subcutaneously with approximately 100 S. mansoni cercariae. […] Untreated mice (n=8) served as controls. At 21 d post-treatment, animals were killed by the CO2 method and dissected. Worms were removed by picking, then sexed and counted.

[3] = Kinetic solubility (nephelometry); format: physicochemical
Protocol: Kinetic Solubility. Compounds in DMSO (10 mg/mL) were diluted into either pH 6.5 phosphate buffer or 0.01 M HCl (approx. pH 2.0) with the final DMSO concentration being 1%. Samples were then analysed via nephelometry to determine a solubility range (Bevan and Lloyd, 2000).

[4] = Partition coefficient (Log D) by gradient HPLC; format: physicochemical
Text: Partition Coefficient. Partition coefficient values (Log D) of the test compounds were estimated by correlation of their chromatographic retention properties against the characteristics of a series of standard compounds with known partition coefficient values using gradient HPLC (modification of a method reported by Lombardo et al., 2001).

[5] = In vitro metabolic stability, human liver microsomes; format: in vitro ADME
Protocol: (§1) In Vitro Metabolic Stability. As described by Charman et al. (2020), metabolic stability assays were performed by incubating test compounds in liver microsomes at 37° C. and 0.4 mg/mL protein concentration. The metabolic reaction was initiated by the addition of an NADPH-regenerating system and quenched at various time points over a 60 min incubation period by the addition of acetonitrile containing diazepam as internal standard. Control samples (containing no NADPH) were included (and quenched at 2, 30 and 60 min) to monitor for potential degradation in the absence of cofactor.

[6] = In vitro metabolic stability, mouse liver microsomes; format: in vitro ADME
Protocol: as §1

[7] = Mouse exposure / pharmacokinetic studies; format: in vivo, mice; conditions: male, Swiss outbred, mouse, in vivo
[8] = test system: S. mansoni; conditions: cited from earlier work
[9] = test system: androgen-receptor; assay: DHT-induced (KLK3, FKBP5) and DHT-repressed (ZFP36L1) transcripts in LAPC4 cells; format: cell-based; conditions: Compound IE up to 10 μM
[10] = pH 7.4, chromatographic estimate, read-out: gLogD7.4
[11] = DHT-induced, androgen-dependent LAPC4 prostate cancer cell line, read-out: LAPC4 IC50
[12] = adult stage, single oral dose, mouse model, read-out: S. mansoni ED50, adult
[13] = juvenile stage, single oral dose, mouse model, read-out: S. mansoni ED50, juvenile

Row | SMILES | chromatographic logD [4, 10] | IC50 [1, 11] | ED50 [2, 12] | ED50 [2, 13] | Sol2.0 ([3]; pH 2) | Sol6.5 ([3]; pH 6.5) | microsomal CLint ([5]; human, microsomes) | microsomal CLint ([6]; mouse, microsomes) | AUC(0-t) ([7]; po, 100 mg/kg) | Cmax ([7]; po, 100 mg/kg) | also measured
1 | CC1(C(F)(F)F)NC(=O)N(c2ccc(F)c(C(F)(F)F)c2)C1=O (stereo not drawn) [IA, 3-(4-Fluoro-3-(trifluoromethyl)phenyl)-5-methyl-5-(trifluoromethyl)imidazolidine-2,4-dione] | 3.5 |  |  |  |  |  |  |  |  |  | IC50 ([1]; LAPC4, read-out: LAPC4 IC50): 5.2 µM; ED50 ([2]; po, read-out: S. mansoni ED50, adult): 14 mg/kg; ED50 ([2]; po, read-out: S. mansoni ED50, juvenile): 70 mg/kg; Sol2.0 ([3]; kinetic solubility, 0.01 M HCl (approx. pH 2.0)): 25-50/25-50 μg/mL; Sol6.5 ([3]; kinetic solubility, pH 6.5 phosphate buffer): 25-50/25-50 μg/mL; microsomal CLint ([5]; human liver microsomes, read-out: h CLint): < 7 µL/min/mg; microsomal CLint ([6]; mouse liver microsomes, read-out: m CLint): < 7 µL/min/mg; AUC(0-t) ([7]; 100 mg/kg PO in mice, read-out: AUC0-last): 966 µg·h/mL; Cmax ([7]; 100 mg/kg PO in mice, read-out: Cmax): 28000 ng/mL
2 | [2H]C([2H])([2H])C1(C([2H])([2H])[2H])NC(=O)N(c2ccc(F)c(C(F)(F)F)c2)C1=O [IB, 3-(4-Fluoro-3-(trifluoromethyl)phenyl)-5,5-bis(methyl-d3)imidazolidine-2,4-dione] | 2.7 | 13 µM | 7.3 mg/kg | 73 mg/kg | >100/>100 μg/mL | >100/>100 μg/mL | < 7 µL/min/mg | < 7 µL/min/mg | 1820 µg·h/mL | 43000 ng/mL | 
3 | CC1(C(F)F)NC(=O)N(c2ccc(F)c(C(F)(F)F)c2)C1=O (stereo not drawn) [ID, 5-(Difluoromethyl)-3-(4-fluoro-3-(trifluoromethyl)phenyl)-5-methylimidazolidine-2,4-dione] |  | 4.2 µM | 9 mg/kg | 88 mg/kg | 50-100/50-100 μg/mL | 50-100/50-100 μg/mL | < 7 µL/min/mg | < 7 µL/min/mg | 1650 µg·h/mL | 42000 ng/mL | chromatographic logD ([4]; pH 7.4): 3.2
4 | O=C(C1CCCCC1)N1CC(=O)N2CCc3ccccc3C2C1 (stereo not drawn) [Praziquantel, praziquantel, reference compound] |  |  |  |  |  |  |  |  |  |  | Worm burden reduction (WBR) ([2]; NOD-SCID (Prkdc^scid) mice): 83%; Worm burden reduction (WBR) ([2]; NOD-SCID (Prkdc^scid) mice, listed as Praziquantel (PZQ)): 83%; Worm burden reduction (WBR) ([2]; outbred NMRI mice): 96%; activity against juvenile stages of the parasite ([8]; schistosome mouse model, literature): no significant activity
5 | CC1(C)NC(=O)N(c2ccc([N+](=O)[O-])c(C(F)(F)F)c2)C1=O [nilutamide, reference compound] |  |  |  |  |  |  |  |  |  |  | levels of DHT-induced (KLK3, FKBP5) and DHT-repressed (ZFP36L1) transcripts [9]: inhibited the DHT-induced increase of KLK3 and FKBP5 and prevented the repression of ZFP36L1; antischistosomal activity ([8]; Keiser et al., 2010): very weak

Reference: patent US20250353819A1, “ARYL HYDANTOIN COMPOUNDS AND METHODS OF USE” (priority 2022, published 2025)
